Source: ChEMBL document CHEMBL1147265, “Lucidenic acids P and Q, methyl lucidenate P, and other triterpenoids from the fungus Ganoderma lucidum and their inhibitory effects on Epstein-Barr virus activation” (J Nat Prod, 2003)

Tested on: Raji
Experiment: Inhibition of 12-O-tetradecanoylphorbol-13-acetate-induced EBV-early antigen activation in human Raji cells assessed as EA induction at 1000 molar ratio relative to 12-O-tetradecanoylphorbol-13-acetate by immunofluorescence technique
Format: cell-based
Parameters: scale not given: the % may be the effect or the level left
Settings: human gammaherpesvirus 4

SMILES	Activity [%]
CC(=O)OC1C[C@H]([C@H](C)CC/C=C(/C)C(=O)O)[C@@]2(C)CC=C3C(=CC[C@H]4C(C)(C)C(=O)CC[C@]34C)[C@]12C (stereo not given in full)	-0
CC1=C(/C=C/C(C)=C/C=C/C(C)=C/C=C/C=C(C)/C=C/C=C(C)/C=C/C2=C(C)CCCC2(C)C)C(C)(C)CCC1 [BETA CAROTENE]	8.6
C[C@H](CC(=O)C[C@@H](C)[C@H]1CC(=O)[C@@]2(C)C3=C(C(=O)C[C@]12C)[C@@]1(C)CCC(=O)C(C)(C)[C@@H]1CC3=O)C(=O)O [GANODERIC ACID E]	-0
CC(=O)O[C@@H]1C(=O)C2=C(C(=O)C[C@H]3C(C)(C)C(=O)CC[C@]23C)[C@]2(C)C(=O)C[C@H]([C@H](C)CC(=O)CC(C)C(=O)O)[C@@]12C (stereo not given in full) [GANODERIC ACID F]	3.6
C[C@H](CCC(=O)O)[C@H]1CC(=O)[C@@]2(C)C3=C(C(=O)C[C@]12C)[C@@]1(C)CCC(=O)C(C)(C)[C@@H]1C[C@@H]3O [LUCIDENIC ACID A]	-0
C[C@H](CCC(=O)O)[C@H]1CC(=O)[C@@]2(C)C3=C(C(=O)[C@@H](O)[C@]12C)[C@@]1(C)CC[C@H](O)C(C)(C)[C@@H]1C[C@@H]3O [LUCIDENIC ACID C]	-0
CC(=O)O[C@@H]1C(=O)C2=C(C(=O)C[C@H]3C(C)(C)C(=O)CC[C@]23C)[C@]2(C)C(=O)C[C@H]([C@H](C)CCC(=O)O)[C@@]12C [LUCIDENIC ACID D2]	2
CC(=O)O[C@@H]1C(=O)C2=C([C@@H](O)C[C@H]3C(C)(C)[C@@H](O)CC[C@]23C)[C@]2(C)C(=O)C[C@H]([C@H](C)CCC(=O)O)[C@@]12C [LUCIDENIC ACID P]	-0

Tested on: not listed separately
Experiment: Cytotoxicity against human Raji cells assessed as cell viability at 1000 molar ratio by trypan blue staining method
Format: cell-based
Settings: read-out: Activity

SMILES	viability at 1000 molar ratio [%]
CC(=O)OC1C[C@H]([C@H](C)CC/C=C(/C)C(=O)O)[C@@]2(C)CC=C3C(=CC[C@H]4C(C)(C)C(=O)CC[C@]34C)[C@]12C (stereo not given in full)	70
C[C@H](CC(=O)C[C@@H](C)[C@H]1CC(=O)[C@@]2(C)C3=C(C(=O)C[C@]12C)[C@@]1(C)CCC(=O)C(C)(C)[C@@H]1CC3=O)C(=O)O [GANODERIC ACID E]	70
CC(=O)O[C@@H]1C(=O)C2=C(C(=O)C[C@H]3C(C)(C)C(=O)CC[C@]23C)[C@]2(C)C(=O)C[C@H]([C@H](C)CC(=O)CC(C)C(=O)O)[C@@]12C (stereo not given in full) [GANODERIC ACID F]	70
C[C@H](CCC(=O)O)[C@H]1CC(=O)[C@@]2(C)C3=C(C(=O)C[C@]12C)[C@@]1(C)CCC(=O)C(C)(C)[C@@H]1C[C@@H]3O [LUCIDENIC ACID A]	70
C[C@H](CCC(=O)O)[C@H]1CC(=O)[C@@]2(C)C3=C(C(=O)[C@@H](O)[C@]12C)[C@@]1(C)CC[C@H](O)C(C)(C)[C@@H]1C[C@@H]3O [LUCIDENIC ACID C]	70
CC(=O)O[C@@H]1C(=O)C2=C(C(=O)C[C@H]3C(C)(C)C(=O)CC[C@]23C)[C@]2(C)C(=O)C[C@H]([C@H](C)CCC(=O)O)[C@@]12C [LUCIDENIC ACID D2]	70
CC(=O)O[C@@H]1C(=O)C2=C([C@@H](O)C[C@H]3C(C)(C)[C@@H](O)CC[C@]23C)[C@]2(C)C(=O)C[C@H]([C@H](C)CCC(=O)O)[C@@]12C [LUCIDENIC ACID P]	70

Tested on: Raji
Experiment: Inhibition of 12-O-tetradecanoylphorbol-13-acetate-induced EBV-early antigen activation in human Raji cells assessed as EA induction at 10 molar ratio relative to 12-O-tetradecanoylphorbol-13-acetate by immunofluorescence technique
Format: cell-based
Parameters: scale not given: the % may be the effect or the level left
Settings: human gammaherpesvirus 4

SMILES	Activity [%]
CC(=O)OC1C[C@H]([C@H](C)CC/C=C(/C)C(=O)O)[C@@]2(C)CC=C3C(=CC[C@H]4C(C)(C)C(=O)CC[C@]34C)[C@]12C (stereo not given in full)	95.3
CC1=C(/C=C/C(C)=C/C=C/C(C)=C/C=C/C=C(C)/C=C/C=C(C)/C=C/C2=C(C)CCCC2(C)C)C(C)(C)CCC1 [BETA CAROTENE]	100
C[C@H](CC(=O)C[C@@H](C)[C@H]1CC(=O)[C@@]2(C)C3=C(C(=O)C[C@]12C)[C@@]1(C)CCC(=O)C(C)(C)[C@@H]1CC3=O)C(=O)O [GANODERIC ACID E]	97.4
CC(=O)O[C@@H]1C(=O)C2=C(C(=O)C[C@H]3C(C)(C)C(=O)CC[C@]23C)[C@]2(C)C(=O)C[C@H]([C@H](C)CC(=O)CC(C)C(=O)O)[C@@]12C (stereo not given in full) [GANODERIC ACID F]	98.7
C[C@H](CCC(=O)O)[C@H]1CC(=O)[C@@]2(C)C3=C(C(=O)C[C@]12C)[C@@]1(C)CCC(=O)C(C)(C)[C@@H]1C[C@@H]3O [LUCIDENIC ACID A]	96.1
C[C@H](CCC(=O)O)[C@H]1CC(=O)[C@@]2(C)C3=C(C(=O)[C@@H](O)[C@]12C)[C@@]1(C)CC[C@H](O)C(C)(C)[C@@H]1C[C@@H]3O [LUCIDENIC ACID C]	93.1
CC(=O)O[C@@H]1C(=O)C2=C(C(=O)C[C@H]3C(C)(C)C(=O)CC[C@]23C)[C@]2(C)C(=O)C[C@H]([C@H](C)CCC(=O)O)[C@@]12C [LUCIDENIC ACID D2]	96.1
CC(=O)O[C@@H]1C(=O)C2=C([C@@H](O)C[C@H]3C(C)(C)[C@@H](O)CC[C@]23C)[C@]2(C)C(=O)C[C@H]([C@H](C)CCC(=O)O)[C@@]12C [LUCIDENIC ACID P]	96.6

Tested on: Raji
Experiment: Inhibition of 12-O-tetradecanoylphorbol-13-acetate-induced EBV-early antigen activation in human Raji cells assessed as EA induction at 500 molar ratio relative to 12-O-tetradecanoylphorbol-13-acetate by immunofluorescence technique
Format: cell-based
Parameters: scale not given: the % may be the effect or the level left
Settings: human gammaherpesvirus 4

SMILES	Activity [%]
CC(=O)OC1C[C@H]([C@H](C)CC/C=C(/C)C(=O)O)[C@@]2(C)CC=C3C(=CC[C@H]4C(C)(C)C(=O)CC[C@]34C)[C@]12C (stereo not given in full)	26.4
C[C@H](CC(=O)C[C@@H](C)[C@H]1CC(=O)[C@@]2(C)C3=C(C(=O)C[C@]12C)[C@@]1(C)CCC(=O)C(C)(C)[C@@H]1CC3=O)C(=O)O [GANODERIC ACID E]	28.3
CC(=O)O[C@@H]1C(=O)C2=C(C(=O)C[C@H]3C(C)(C)C(=O)CC[C@]23C)[C@]2(C)C(=O)C[C@H]([C@H](C)CC(=O)CC(C)C(=O)O)[C@@]12C (stereo not given in full) [GANODERIC ACID F]	28.5
C[C@H](CCC(=O)O)[C@H]1CC(=O)[C@@]2(C)C3=C(C(=O)C[C@]12C)[C@@]1(C)CCC(=O)C(C)(C)[C@@H]1C[C@@H]3O [LUCIDENIC ACID A]	22.7
C[C@H](CCC(=O)O)[C@H]1CC(=O)[C@@]2(C)C3=C(C(=O)[C@@H](O)[C@]12C)[C@@]1(C)CC[C@H](O)C(C)(C)[C@@H]1C[C@@H]3O [LUCIDENIC ACID C]	24
CC(=O)O[C@@H]1C(=O)C2=C(C(=O)C[C@H]3C(C)(C)C(=O)CC[C@]23C)[C@]2(C)C(=O)C[C@H]([C@H](C)CCC(=O)O)[C@@]12C [LUCIDENIC ACID D2]	26.1
CC(=O)O[C@@H]1C(=O)C2=C([C@@H](O)C[C@H]3C(C)(C)[C@@H](O)CC[C@]23C)[C@]2(C)C(=O)C[C@H]([C@H](C)CCC(=O)O)[C@@]12C [LUCIDENIC ACID P]	27.5

Tested on: not listed separately
Experiment: Inhibition of 12-O-tetradecanoylphorbol-13-acetate-induced EBV-early antigen activation in human Raji cells assessed per 32 pmol TPA by immunofluorescence technique
Format: cell-based, human gammaherpesvirus 4
Settings: not given

SMILES	IC50 [molar ratio]
CC(=O)OC1C[C@H]([C@H](C)CC/C=C(/C)C(=O)O)[C@@]2(C)CC=C3C(=CC[C@H]4C(C)(C)C(=O)CC[C@]34C)[C@]12C (stereo not given in full)	281
CC1=C(/C=C/C(C)=C/C=C/C(C)=C/C=C/C=C(C)/C=C/C=C(C)/C=C/C2=C(C)CCCC2(C)C)C(C)(C)CCC1 [BETA CAROTENE]	400
C[C@H](CC(=O)C[C@@H](C)[C@H]1CC(=O)[C@@]2(C)C3=C(C(=O)C[C@]12C)[C@@]1(C)CCC(=O)C(C)(C)[C@@H]1CC3=O)C(=O)O [GANODERIC ACID E]	281
CC(=O)O[C@@H]1C(=O)C2=C(C(=O)C[C@H]3C(C)(C)C(=O)CC[C@]23C)[C@]2(C)C(=O)C[C@H]([C@H](C)CC(=O)CC(C)C(=O)O)[C@@]12C (stereo not given in full) [GANODERIC ACID F]	293
C[C@H](CCC(=O)O)[C@H]1CC(=O)[C@@]2(C)C3=C(C(=O)C[C@]12C)[C@@]1(C)CCC(=O)C(C)(C)[C@@H]1C[C@@H]3O [LUCIDENIC ACID A]	280
C[C@H](CCC(=O)O)[C@H]1CC(=O)[C@@]2(C)C3=C(C(=O)[C@@H](O)[C@]12C)[C@@]1(C)CC[C@H](O)C(C)(C)[C@@H]1C[C@@H]3O [LUCIDENIC ACID C]	284
CC(=O)O[C@@H]1C(=O)C2=C(C(=O)C[C@H]3C(C)(C)C(=O)CC[C@]23C)[C@]2(C)C(=O)C[C@H]([C@H](C)CCC(=O)O)[C@@]12C [LUCIDENIC ACID D2]	287
CC(=O)O[C@@H]1C(=O)C2=C([C@@H](O)C[C@H]3C(C)(C)[C@@H](O)CC[C@]23C)[C@]2(C)C(=O)C[C@H]([C@H](C)CCC(=O)O)[C@@]12C [LUCIDENIC ACID P]	286

Tested on: Raji
Experiment: Inhibition of 12-O-tetradecanoylphorbol-13-acetate-induced EBV-early antigen activation in human Raji cells assessed as EA induction at 100 molar ratio relative to 12-O-tetradecanoylphorbol-13-acetate by immunofluorescence technique
Format: cell-based
Parameters: scale not given: the % may be the effect or the level left
Settings: human gammaherpesvirus 4

SMILES	Activity [%]
CC(=O)OC1C[C@H]([C@H](C)CC/C=C(/C)C(=O)O)[C@@]2(C)CC=C3C(=CC[C@H]4C(C)(C)C(=O)CC[C@]34C)[C@]12C (stereo not given in full)	74.6
C[C@H](CC(=O)C[C@@H](C)[C@H]1CC(=O)[C@@]2(C)C3=C(C(=O)C[C@]12C)[C@@]1(C)CCC(=O)C(C)(C)[C@@H]1CC3=O)C(=O)O [GANODERIC ACID E]	79
CC(=O)O[C@@H]1C(=O)C2=C(C(=O)C[C@H]3C(C)(C)C(=O)CC[C@]23C)[C@]2(C)C(=O)C[C@H]([C@H](C)CC(=O)CC(C)C(=O)O)[C@@]12C (stereo not given in full) [GANODERIC ACID F]	77.1
C[C@H](CCC(=O)O)[C@H]1CC(=O)[C@@]2(C)C3=C(C(=O)C[C@]12C)[C@@]1(C)CCC(=O)C(C)(C)[C@@H]1C[C@@H]3O [LUCIDENIC ACID A]	73
C[C@H](CCC(=O)O)[C@H]1CC(=O)[C@@]2(C)C3=C(C(=O)[C@@H](O)[C@]12C)[C@@]1(C)CC[C@H](O)C(C)(C)[C@@H]1C[C@@H]3O [LUCIDENIC ACID C]	72.6
CC(=O)O[C@@H]1C(=O)C2=C(C(=O)C[C@H]3C(C)(C)C(=O)CC[C@]23C)[C@]2(C)C(=O)C[C@H]([C@H](C)CCC(=O)O)[C@@]12C [LUCIDENIC ACID D2]	73.8
CC(=O)O[C@@H]1C(=O)C2=C([C@@H](O)C[C@H]3C(C)(C)[C@@H](O)CC[C@]23C)[C@]2(C)C(=O)C[C@H]([C@H](C)CCC(=O)O)[C@@]12C [LUCIDENIC ACID P]	74.2
